Data taken from patent publication US20080159958A1, “DETERMINATION OF HISTAMINE-3 BIOACTIVITY” (Abbott Laboratories, priority 2006, published 2008).
Read-outs that look alike come from different tables or passages of the source.

How the values were obtained:
[1] = system: diphenhydramine-induced increase of rat 1-4 Hz EEG amplitude; assay: Rat cortical EEG, H3R antagonist co-administered with diphenhydramine (1-4 Hz amplitude); assay type: in vivo; conditions: rats
Protocol: (§1) All experiments have been approved by the Institutional Animal Care and Use Committee (IACUC) at Abbott Laboratories and are in strict accordance with the ethical guidelines for use of laboratory animals. All experiments were conducted with male adult CD-1 rats of the Sprague-Dawley strain (Charles River Laboratories, Portage, Mich.) with body weights in the range of 400-600 g. When the rats were not in the laboratory being tested, they were housed 1 per cage in a climate controlled room with 12 hour lights on, 12 hour lights off cycle and food provided ad-lib.
(§2) For anesthesia during surgical implantation of EEG recording electrodes, rats are administered Nembutal (Abbott Laboratories) […] ip. After achieving a deep, stable plane of anesthesia, scalp hair is removed using electric clippers and the rat is placed into the ear and incisor bars of a stereotaxic instrument to immobilize the head. The scalp is disinfected with povidone iodine, and an incision is placed longitudinally along the midline of the scalp and the tissue retracted from the skull with a blunt probe. EEG recording electrodes are bilaterally implanted over the parietal (−2.0 mm anterior-posterior, 4.0 mm lateral from bregma) and frontal (+2.0 mm anterior-posterior, 3.0 mm lateral from bregma) cortices. A reference electrode was placed 11.0 mm posterior to bregma along the centerline (0.0 mm lateral). Cortical surface electrodes consist of stainless steel screws (size #90-00) soldered to a fine wire and a miniature electrical socket. To implant the electrodes, small holes are drilled (#60 bit) into the skull, taking care not to damage the dura with the drill bit. […] Once in place, the electrodes along with the miniature connector are permanently affixed to the skull with acrylic dental cement. The rats are given a 10-14 day recovery period from the surgery before experiments are conducted.
The EEG was recorded from rats inside sound-attenuating chambers (Med Associates Inc, St. Albans, Vt.). Before any pharmacological experiments began, implanted rats were habituated to the EEG recording chambers for 2-5 hours on 5 consecutive days. When placed into the recording chambers, a flexible cable is attached to the miniature connector implanted on the rats. This cable allows the rat unrestricted movement within the chambers during the recording session. […]
(§3) Assessment of cortical low frequency EEG amplitude in the 1-4 Hz band (delta) was used as an electrophysiological measure of H1R and H3R antagonist activity in rats. The average 1-4 Hz EEG amplitude in microvolts (μV) was determined for 10 second epochs using Fast Fourier Transform (FFT) analysis. To determine the average 1-4 Hz EEG amplitude for the first 60 minutes of the recording, 360-10 sec FFT analyzed epochs were averaged together. […]

[2] = target: rat histamine H3 receptor (Rattus norvegicus, UniProt Q9QYN8); assay: Competition binding assay with [3H]-N-α-methylhistamine, rat H3 receptor
Protocol: The rat and human H3 receptor was cloned and expressed in cells, and competition binding assays carried out, according to methods previously described (see Esbenshade, et al. Journal of Pharmacology and Experimental Therapeutics, vol. 313:165-175, 2005; Esbenshade et al., Biochemical Pharmacology 68 (2004) 933-945; Krueger, et al. Journal of Pharmacology and Experimental Therapeutics, vol. 314:271-281, 2005. Membranes were prepared from C6 or HEK293 cells, expressing the rat histamine H3 receptor, by homogenization on ice in TE buffer (50 mM Tris-HCl buffer, pH 7.4, containing 5 mM EDTA), 1 mM benzamidine, 2 μg/ml aprotinin, 1 μg/ml leupeptin, and 1 μg/ml pepstatin. The homogenate was centrifuged at 40,000 g for 20 minutes at 4° C. This step was repeated, and the resulting pellet was resuspended in TE buffer. Aliquots were frozen at −70° C. until needed. On the day of assay, membranes were thawed and diluted with TE buffer.
Membrane preparations were incubated with [^3H]-N-α-methylhistamine (0.5-1.0 nM) in the presence or absence of increasing concentrations of ligands for H3 receptor competition binding. […] Bound radiolabel was determined by liquid scintillation counting. For all of the radioligand competition binding assays, IC50 values and Hill slopes were determined by Hill transformation of the data and pKi values were determined by the Cheng-Prusoff equation.

human H3 receptor = target: T1, human H3 receptor (Homo sapiens, UniProt Q9Y5N1); assay: Competition binding assay with [3H]-N-α-methylhistamine, human H3 receptor; conditions: cloned human H3 receptor, cell membranes
T1 construct: expressed in transfected cells
Protocol: Membrane preparations were incubated with [^3H]-N-α-methylhistamine (0.5-1.0 nM) in the presence or absence of increasing concentrations of ligands for H3 receptor competition binding.

rat 1-4 Hz EEG amplitude = assay: Rat cortical EEG, H1R or H3R antagonist given alone (1-4 Hz amplitude); assay type: in vivo; conditions: rats, vs. vehicle control
Protocol: as §1, §2
The EEG was recorded from rats inside sound-attenuating chambers (Med Associates Inc, St. Albans, Vt.). Before any pharmacological experiments began, implanted rats were habituated to the EEG recording chambers for 2-5 hours on 5 consecutive days. When placed into the recording chambers, a flexible cable is attached to the miniature connector implanted on the rats. This cable allows the rat unrestricted movement within the chambers during the recording session. EEG amplifiers (AM Systems, Inc., Carlsborg, Wash.) and a computer-based data acquisition system (Datawave Inc., Berthoud, Colo.) were used to acquire (256 Hz sampling rate) and analyze data. All experiments and habituation sessions were conducted during the light phase of the circadian cycle.
Dose response effects on EEG were determined for the H3R antagonist Compound 1 (0.01-1.0 mg/kg), ABT-239 (0.1-3.0 mg/kg), and thioperamide (3.0-30.0 mg/kg). […] Dose response effects on EEG were also determined for the H1 antagonist diphenhydramine (1.0-10.0 mg/kg). […] Each rat received a vehicle control treatment (placebo), and all doses of the test compounds. All treatments were administered by the intraperitoneal (i.p.) route of administration. The treatments were administered in a random order on different days with one treatment per day, and at least 2 days between treatments. This within subjects design allowed each rat to serve as its own control. EEG recordings were begun within 10 minutes after injection and recording sessions lasted for 120 minutes. The time of day for injections and subsequent recordings were between 10:00 AM and 2:00 PM.
as §3

Sequence of rat histamine H3 receptor (Q9QYN8 whole entry): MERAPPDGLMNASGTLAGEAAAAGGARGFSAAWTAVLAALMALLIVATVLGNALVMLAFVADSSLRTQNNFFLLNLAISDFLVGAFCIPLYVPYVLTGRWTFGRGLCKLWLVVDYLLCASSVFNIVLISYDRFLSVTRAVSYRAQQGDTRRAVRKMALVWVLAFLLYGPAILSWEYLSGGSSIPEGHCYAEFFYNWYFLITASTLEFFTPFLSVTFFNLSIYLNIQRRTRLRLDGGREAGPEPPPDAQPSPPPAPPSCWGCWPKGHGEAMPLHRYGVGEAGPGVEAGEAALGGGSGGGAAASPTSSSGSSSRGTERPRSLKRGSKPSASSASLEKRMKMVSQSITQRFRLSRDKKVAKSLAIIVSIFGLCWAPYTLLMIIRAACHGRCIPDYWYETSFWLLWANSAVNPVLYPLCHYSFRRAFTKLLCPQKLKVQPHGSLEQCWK
T1 sequence (Q9Y5N1 whole entry): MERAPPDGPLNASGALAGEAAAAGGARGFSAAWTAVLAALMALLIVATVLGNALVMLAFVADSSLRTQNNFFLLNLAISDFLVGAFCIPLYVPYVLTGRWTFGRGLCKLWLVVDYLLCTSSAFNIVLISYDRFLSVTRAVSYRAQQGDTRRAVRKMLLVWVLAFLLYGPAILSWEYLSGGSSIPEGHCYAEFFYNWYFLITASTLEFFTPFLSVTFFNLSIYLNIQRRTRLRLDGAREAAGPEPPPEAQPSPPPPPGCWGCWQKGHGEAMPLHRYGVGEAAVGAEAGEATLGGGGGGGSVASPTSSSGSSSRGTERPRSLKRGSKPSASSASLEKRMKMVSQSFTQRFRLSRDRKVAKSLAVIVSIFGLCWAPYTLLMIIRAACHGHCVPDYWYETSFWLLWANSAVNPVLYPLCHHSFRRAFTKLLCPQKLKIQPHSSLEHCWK

`CN1C[C@H]2CCN(c3ccc(-c4ccc(-n5ncccc5=O)cc4)cc3)[C@H]2C1` [Compound 1, (3aR, 6aR)-2-[4′-(5-methyl-hexahydro-pyrrolo[3,4-b]pyrrol-1-yl)-biphenyl-4-yl]-2H-pyridazin-3-one] was tested, and the “effect on diphenhydramine-induced increase of average 1-4 Hz EEG amplitude” value ([1]; 0.01 mg/kg i.p. given 15 minutes before diphenhydramine 10.0 mg/kg i.p.) was “did not achieve statistical significance”, the “effect on diphenhydramine-induced increase of average 1-4 Hz EEG amplitude” value ([1]; 0.03 mg/kg and 0.1 mg/kg i.p. given 15 minutes before diphenhydramine 10.0 mg/kg i.p.) was “significantly reduces” and the Ki [2] was 8.1 nM. The Ki (human H3 receptor) was 1.9 nM, the “effect on average amplitude of 1-4 Hz EEG, given alone” value (shortened to “effect on average amplitude”) (rat 1-4 Hz EEG amplitude; 1.0 mg/kg i.p., first hour after injection) was “lower the average amplitude of 1-4 Hz EEG” and the “effect on average amplitude” value (rat 1-4 Hz EEG amplitude; 0.01-0.1 mg/kg i.p., first hour) was “did not produce significant lowering”.
`C[C@@H]1CCCN1CCc1cc2cc(-c3ccc(C#N)cc3)ccc2o1` [Compound 2, 4-(2-[2-((R)-2-methyl-pyrrolidin-1-yl)-ethyl]-benzofuran-5-yl}-benzonitrile] was tested, and the “effect on diphenhydramine-induced increase of average 1-4 Hz EEG amplitude” value ([1]; 0.3 mg/kg i.p. given 15 minutes before diphenhydramine 10.0 mg/kg i.p.) was “significantly reduces”, the “effect on average amplitude” value (rat 1-4 Hz EEG amplitude; 3.0 mg/kg i.p., first hour) was “trend toward a decrease” and the “effect on average amplitude” value (rat 1-4 Hz EEG amplitude; 0.1-3.0 mg/kg i.p., first hour) was “did not produce statistically significant lowering”.
`S=C(NC1CCCCC1)N1CCC(c2c[nH]cn2)CC1` [Compound 3, N-cyclohexyl-4-(1H-imidazol-4-yl)piperidine-1-carbothioamide] was tested, and the “effect on diphenhydramine-induced increase of average 1-4 Hz EEG amplitude” value ([1]; 3.0 mg/kg i.p. given 15 minutes before diphenhydramine 10.0 mg/kg i.p.) was “significantly reduces”, the Ki ([2]; read-out: rat H3 Ki, cloned rat H3 receptor, C6 or HEK293 cell membranes) was 3.6 nM and the “effect on average amplitude” value (rat 1-4 Hz EEG amplitude; 30.0 mg/kg i.p., first hour after injection) was “lower the average amplitude of 1-4 Hz EEG”. The “effect on average amplitude” value (rat 1-4 Hz EEG amplitude; 3.0-10. mg/kg i.p., first hour) was “did not produce significant lowering”.
For `CN(C)CCOC(c1ccccc1)c1ccccc1` [diphenhydramine], the “effect on average amplitude” value (rat 1-4 Hz EEG amplitude; 10.0 mg/kg i.p., first hour) was “significantly increased” and the “effect on average amplitude” value (rat 1-4 Hz EEG amplitude; 1.0-3.0 mg/kg i.p., first hour) was “not significantly different from vehicle control”.
